We go through one substance from patent publication US20260091078A1, “OLIGOPEPTIDE THAT INHIBITS ANGIOGENESIS AND VASCULAR FUNCTION” (UNIVERSIDAD NACIONAL AUTONOMA DE MEXICO, priority 2019, published 2026).

Common to all, as to type: cell-based
For assay [1], the system named is human umbilical-vein endothelial cells (HUVEC). Kind of assay: Proliferation of HUVEC stimulated with VEGF and bFGF (EdU click assay). To be noted: HUVEC, 25 ng ml^-1 VEGF and 20 ng ml^-1 bFGF, 24 hours, 0.001 to 100 nM; read-out: effective dose (EC50) for inhibition of proliferation. How it is done: (§1) On a 96-well plate treated for cell culture, BUVEC E6E7 and HUVEC cells were seeded at a density of ˜14,000 and ˜11,000 cells cm^−2, respectively. BUVEC E6E7 cells were maintained in F12K culture media with 10% (v/v) fetal bovine serum (FBS) and the HUVEC in F12K media supplemented with 20% of FBS, 100 μg ml^−1 heparin and 25 μg ml^−1 of endothelial cell growth supplement (ECGS). After 24 hours, the cells were starved with FBS-reduced media (0.1% of FBS for BUVEC E6E7 and 0.5% for HUVEC) for 16 hours to synchronize cells in phase GO of the reproductive cycle. After this time, FBS and heparin were replenished only to HUVEC. The cells were then treated with vasoinhibin or the oligopeptide THGRGFI in concentrations ranging from 0.001 to 100 nM for 24 hours in the presence of 10 μM of the thymidine analog 5-Ethynyl-2′-deoxyuridine (EdU) and 50 ng ml^−1 VEGF for the BUVEC E6E7 or the combination of 25 ng ml^−1 VEGF and 20 ng ml^−1 bFGF for HUVEC. At the end of the experiment, cells were fixed with 4% paraformaldehyde, permeabilized with 0.5% Triton X-100 in TBS1x, and stained to detect the newly synthetized DNA by the incorporation of EdU using the “click” assay (which involves a copper catalyzed reaction to covalently bind fluorescent azide to the EDU incorporated to DNA). Total DNA was counterstained with Hoechst 33342 and the “click”-stained nuclei were quantified and plotted relative to the total number of Hoechst 33342-stained nuclei.
HUVEC were seeded on a 96 well plate at a density of ˜11,000 cells cm^−2 and maintained in F12K supplemented with 20% of FBS, 100 μg ml^−1 heparin and 25 μg ml^−1 endothelial cell growth supplement (ECGS). After 24 hours, the cells were synchronized in GO with starving conditions (FBS 0.5%) for 16 hours, and after that FBS and the heparin were replenished. Cells were then treated with THGRGFI, the different oligopeptides and 123 amino acids vasoinhibin, each in a concentration of 100 nM, for 24 hours in presence or absence of 10 μM of thymidine analog 5-Ethynyl-2′-deoxyuridine (EdU) and a combination of 25 ng ml^−1 VEGF and 20 ng ml^−1 bFGF. Finally, the cells were fixed with 4% paraformaldehyde, permeabilized with 0.5% of Triton X-100 in TBS1x and stained for the newly synthetized DNA with the ‘click’ method that detects the EdU incorporation. Total DNA was stained with Hoechst 33342 and the percentage of ‘click’-stained nuclei relative to total nuclei (Hoechst 33342-stained) indicated cell proliferation.
Approximately 11,000 HUVEC cells cm^−2 were seeded on a 96 well plate in F12K media with 20% FBS, 100 μg ml^−1 heparin and 25 μg ml^−1 ECGS. After 24 hours, cells were starved with 0.5% of FBS for ˜16 hours, and after that time the FBS and heparin were added again and cells treated with different doses of the alanine substituted oligopeptides for 24 hours, in the presence of EdU and a combination of 25 ng ml^−1 VEGF and 20 ng ml^−1 bFGF. Finally, the cells were fixed, permeabilized and stained to quantify the synthesis of DNA as a sign of proliferation.

The test system of assay [2] is immortalized bovine umbilical-vein endothelial cells (BUVEC E6E7). The assay is described as follows: Proliferation of BUVEC E6E7 endothelial cells stimulated with VEGF (EdU click assay). To be noted: BUVEC E6E7, 50 ng ml^-1 VEGF, 24 hours, 0.001 to 100 nM; read-out: effective dose (EC50) for inhibition of proliferation. How it is done: as §1
For the assay, BUVEC E6E7 cells were seeded at a density of ˜14′000 cells cm^−2 in a 96 well plate with F12K with 10% (v/v) FBS. After 24 hours, cells were starved with 0.1% of FBS for GO synchronization for ˜16 hours. Next, the cells were treated with the different oligopeptides in presence of 10 μM of the thymidine analog EdU and 50 ng ml^−1 of VEGF. Finally, the cells were fixed, permeabilized, and stained for the newly synthetized DNA by the EdU incorporation through the ‘click’ assay. The total DNA was stained with Hoechst 33342 and the percentage of ‘click’-stained nuclei over the total nuclei was a measure of proliferation.

The test system of assay [3] is human endothelial cells from the umbilical-vein (HUVEC). Kind of assay: Formation of capillary structures by HUVEC on Matrigel. To be noted: 100 nM, 6 hours. How it is done:
For investigating whether the oligopeptide THGRGFI shares this property, a primary culture of human endothelial cells from the umbilical-vein (HUVEC) was maintained in F12K media supplemented with 20% FBS, 100 μg ml^−1 of heparin, and 25 μg ml^−1 endothelial cell growth supplement (ECGS). Cells from passages 2 to 4 were rinsed with tempered PBS1x and were detached from the plate with 0.25% trypsin-EDTA for ˜3 minutes and centrifuged to remove trypsin. The cells were counted using an hemocytometer and seeded at a density of 29,000 cells cm^−2 in 300 μl of F12K medium supplemented with 20% FBS and with heparin on a 24-well plate, over a layer of ˜9.7 μg μl^−1 Matrigel™ which was previously polymerized for 1 hour at 37° C. Cells were then treated with 100 nM vasoinhibin or the oligopeptide THGRGFI, and after 6 hours, micrographs were obtained in an inverted microscope. The images were analyzed to quantify main joining areas per field using the software “Angiogenesis Analyzer” [Gilles Carpentier. ImageJ contribution: Angiogenesis Analyzer. ImageJ News, 5 Oct. 2012.] and the ImageJ software.

“Ac-THGRGFI-NH2 [THGRGFI, Thr His Gly Arg Gly Phe Ile]”: the EC50 in assay [1] and in assay [2] was ~1 nM in each case. The “effect on capillary structures (main joining areas per field)” value in assay [3] was “disrupted the capillary structures”.
